Assay results: patent US20080026076A1 (priority 2003, published 2008)
Where “and” joins values, the source holds several entries; their conditions need not be identical. Equal values may be shown once. Marks after values point to notes of the source that are not given here.

How the values were obtained:
[1] = Plasma antioxidant reserve (PAR); type: in vivo, human; conditions: for PAR, Endpoint: end of quercetin phase
Experimental: Blood samples were collected after blood pressure was measured. Blood was collected by antecubital venipuncture from fasting subjects into sodium heparin tubes (Becton Dickinson, N.J., USA). Collected blood was immediately stored on ice and centrifuged within 10 minutes at 4° C. for 15 minutes at 2500 g as previously described (36). […] Ex-vivo amplification of isoprostanes was accomplished by introducing a source of free radicals (3-morpholinosydnonimine, SIN-1) into the blood plasma to induce oxidation of lipoproteins (39). Uric acid, a major water soluble antioxidant present in plasma, was removed using uricase prior to introduction of SIN-1 so that any protection provided by other antioxidants could be measured. Therefore, PAR measures the non-urate antioxidant capacity, or antioxidant power, of blood.

PKC α, βI, ε, δ = assay: PKC isoform activation in left ventricle, Western blots; type: in vivo, rat; conditions: between all groups (SH, AAC, SHQ, AACQ)
Excerpt: Following the experimental period, rats were sacrificed, left ventricles were homogenized, and cytosolic & membrane cell fractions isolated using differential centrifugation as previously described (Jalili et al., 1999). Immunobloting using standard protocols was used to assess PKC distribution. […] Increased abundance in membrane bound fractions is indicative of PKC activation.
Western blotting, transfer and densitometry: Electrophoresis and transfer of proteins to PVDF membranes were done as previously described (18, 19). Primary antibody directed against PKC α, βI, βII, δ, and ε (Santa Cruz Biotechnology, Santa Cruz, Calif.) were incubated overnight at 4° C. in a 1:1000 dilution. Antibodies directed against phospho ERK 1/2, phospho JNK, ph c-Raf (Cell Signal Technology, Beverly, Mass.), and phospho PKC P (Santa Cruz Biotechnology, Santa Cruz, Calif.), were incubated at a 1:1000 dilution for 48 h at 4° C. in 5% BSA Tris buffer with 0.05% Tween-20. Secondary antibody conjugated to horseradish peroxidase (goat anti rabbit, (Cell Signal Technology, Beverly, Mass.)) was incubated for 1 h at 1:10,000 dilution. Signals were visualized by enhanced chemiluminescence (Cell Signal Technology, Beverly, Mass.). Relative band density of immunoblots on film were measured with a scanner using NIH 1.63 image software (National Institutes of Health, Rockville, Md.).

[2] = Trial: body mass, heart rate, adverse effects; type: in vivo, human
Experimental: A 14-day washout period separated the two phases. Subjects were randomly assigned to begin either the quercetin or the placebo phase first. […] Clinic visits were conducted on overnight-fasted subjects in the morning hours at the beginning and end of the placebo and quercetin supplementation phases. Subjects were instructed not to exercise prior to their appointments. […] Blood pressure was a primary outcome variable and was obtained at each clinic visit by a trained observer using an Omron random zero automatic blood pressure analyzer as previously described (35). Each participant sat quietly for 5-10 minutes, after which their arm was placed at heart level and blood pressure and pulse rate were determined at least three times in 3-5 minute intervals. If blood pressure varied among these determinations by more than 10 mmHg, three additional trials were performed. The accumulated measurements then were averaged to determine overall systolic and diastolic pressure and pulse rate for each subject. Nearly 1000 patients were interviewed and screened for eligibility. […] From this initial screening, 204 were evaluated in more detail at a subsequent clinic visit to determine if all inclusion/exclusion criteria were met, and that blood pressure was within the study limits (FIG. 6). […]

[3] = system: mice with surgically induced abdominal aortic constriction; conditions: oral, 5 day, 120 mg/kg/day (Wang et al., 1999); cited from earlier work
[4] = 30 mg/kg quercetin (p.o.) in rats (ref. 61); cited from earlier work
[5] = system: rats with abdominal aortic constriction (AAC) or sham operated; assay: Blood pressure in caudal and carotid arteries of conscious rats, abdominal aortic constriction pressure overload model; type: in vivo, rat; conditions: quercetin 1.5 g/kg chow, mean ± SEM
Excerpt: In this procedure the abdominal aorta is constricted to increase the afterload on the heart and produce pressure overload. […] Rats consumed this diet for 7 days. On the 8th day, 5 rats were surgically modeled for pressure overload by constricting the abdominal aorta to a diameter of 0.63 mm with a Weck hemoclip. The other 5 rats were sham operated (anesthetized and the aorta exposed, but not constricted). […] Another group of 10 rats were placed on a standard diet with no supplement and treated in an identical fashion with 5 surgically modeled for pressure overload and 5 sham operated. […] Two weeks after surgery post-sacrifice morphometric measurements are obtained by measuring total heart weight, left ventricle weight, and calculating heart:body weight and left ventricle:body weight ratios to assess cardiac mass and cardiac hypertrophy. […] An identical experimental procedure as described in Example I is used with n=10 rats per group (S, AAC, SQ, AAC-Q) for a total of 40 rats. […] Rats subjected to this protocol have very high carotid blood pressure. Rats are anesthetized, a catheter is placed in the caudal and carotid arteries, rats are allowed to regain consciousness for 60 minutes and blood pressures are measured.

[6] = Trial: fasting blood lipids and glucose (Cholestech LDX); type: in vivo, human; conditions: after quercetin supplementation compared to placebo (data not shown)
Experimental: During each patient visit whole blood (˜50 μL) was obtained from a digit puncture to determine blood lipids (LDL, VLDL, HDL, total cholesterol) and glucose using a clinical Cholestech LDX blood analyzer (37). Prior to each patient visit, first morning urine was collected, brought to the laboratory, and stored at −80° C. for later analysis of isoprostane concentrations.

ERK1/2 = ERK1/2 signaling status in left ventricle, immunoblot; type: in vivo, rat; conditions: AAC rats fed supplemental quercetin
Experimental: Determination of ERK1/2 and Akt signaling status (FIGS. 4A & 4B). All extraction procedures were performed at 4° C. […] After homogenization, the samples were sonicated twice on ice and centrifuged at 11,000×g for 10 min. at 4° C. Supernatants were recovered and stored at −80° C. for subsequent immunoblotting. Protein concentration of whole heart cell lysate was determined using a Bio-Rad Protein assay (Bio-Rad, Hercules, Calif.) with bovine serum albumin (BSA) as a standard.

PKC = conditions: cytosol and membrane fraction of cells from thyroid, brain, liver, fibroblasts; μM concentrations of quercetin; cited from earlier work

With `O=c1c(O)c(-c2ccc(O)c(O)c2)oc2cc(O)cc(O)c12` [quercetin, 3,5,7,3′,4′-pentahydroxyflavone] the “fasting plasma PAR, quercetin supplementation vs. placebo” value ([1]; both groups of hypertensive subjects) was “not altered”, the “PAR, Endpoint” value ([1]; prehypertensive (n=10), baseline 279 ± 48) was 266 ± 32 pg/mL and the “PAR, Endpoint” value ([1]; stage 1 hypertensive (n=8), baseline 258 ± 55) was 281 ± 74 pg/mL. For the same compound, the “Activation of PKC α, βI, ε, or δ isoforms” value (PKC α, βI, ε, δ) was “no significant differences”, the adverse effects ([2]; 730 mg quercetin/day, 4 weeks, during the course of the study) was “No adverse effects” and the Heart rate ([2]; throughout the study (data not shown)) was “unchanged”. For the same compound, the cardiac hypertrophy [3] was “prevented cardiac hypertrophy”, the “hypertensive response to i.v. administration of angiotensin II” value [4] was “significantly blunted the hypertensive response” and the “Caudal MAP (mean arterial pressure)” value ([5]; AAC + Q: AAC rats) was 108.0 ± 7.1 mmHg. For the same compound, the “Diastolic Caudal blood pressure” value ([5]; AAC + Q: AAC rats) was 104.7 ± 5.5^b mmHg, the “Gradient MAP” value ([5]; AAC + Q: AAC rats) was 18.3 ± 4.4^b mmHg and the “Systolic Caudal blood pressure” value ([5]; AAC + Q: AAC rats) was 118.3 ± 6.4 mmHg. The “Systolic Carotid blood pressure” value ([5]; AAC + Q: AAC rats, untreated AAC 201.4 ± 11.4) was 158.8±10.3 mmHg and 158.8 ± 10.3^b mmHg, the “Carotid MAP (mean arterial pressure)” value ([5]; Sham + Q: sham operated rats) was 113.5 ± 3.8^a mmHg and the “Caudal MAP (mean arterial pressure)” value ([5]; Sham + Q: sham operated rats) was 100.6 ± 3.0 mmHg. The “Diastolic Carotid blood pressure” value ([5]; Sham + Q: sham operated rats) was 106.2 ± 4.8^a mmHg, the “Diastolic Caudal blood pressure” value ([5]; Sham + Q: sham operated rats) was 93.6 ± 3.2^a mmHg and the “Diastolic Gradient (carotid vs caudal)” value ([5]; Sham + Q: sham operated rats) was 7.0 ± 2.9^a mmHg. For the same compound, the “Gradient MAP” value ([5]; Sham + Q: sham operated rats) was 7.2 ± 1.9^ab mmHg, the “Systolic Carotid blood pressure” value ([5]; Sham + Q: sham operated rats) was 128.2 ± 1.9^a mmHg and the “Systolic Caudal blood pressure” value ([5]; Sham + Q: sham operated rats) was 114.7 ± 3.2 mmHg. For the same compound, the “Systolic Gradient (carotid vs caudal)” value ([5]; Sham + Q: sham operated rats) was 7.3 ± 1.9^a mmHg, the “Fasting blood glucose levels” value [6] was “unchanged” and the “activation of ERK1/2” value (ERK1/2) was “reduced”. The PKC activity (PKC) was “inhibition of PKC activity”.
